Experimental data as given in patent US12358919B2, “Antibacterial compounds” (Universita' degli Studi di Siena, priority 2019, dated 2025).

Legend:
in vitro = type: cell-based; details: human
Description: Growth inhibition or killing of bacteria was investigated using conventional methods widely described in the scientific literature. Parameters such as the Minimum Inhibitory Concentration (MIC) were determined as described in Clinical Laboratory Standard Institute (CLSI) document M07 “Methods for Dilution Antimicrobial Susceptibility Tests for Bacteria That Grow Aerobically, 11th Edition” (2018). Synergistic activity of the compounds described in the present specification were determined by measuring the variation of the MIC's compound in the absence and presence of a sub-inhibitory concentration of a suitable antibacterial agent, such as polymyxin E1. Furthermore, the Fractional Inhibitory Concentrations (FICs) were measured using a chequerboard analysis to determine the average FIC index (FICI), whose value is known to characterize the interaction between two compounds and/or drugs (≤0.5, synergistic interaction; >0.5 and <2, no interaction, additive effect; ≥2, antagonistic interaction). Furthermore, the selectivity of the compounds was investigated by measuring their cytotoxic effect on mammalian cell lines (e.g. HeLa cells).
The selectivity and potential cytotoxic effect of antibacterial compounds is a key aspect of such drugs. […]

K. pneumoniae ATCC 13833 = test: Chequerboard analysis with polymyxin E1 (average FIC index); type: cell-based, Klebsiella pneumoniae; details: compound + polymyxin E1

With `CCCCn1c(=O)c(C(=O)NC23CC4CC(CC(C4)C2)C3)c(O)c2nn(C)cc21` [Ib, N-(Adamantan-1-yl)-4-(1-butyl)-4,5-dihydro-7-hydroxy-2-methyl-5-oxo-2H-pyrazolo[4,3-b]pyridin-6-carboxamide] the IC50 at 24 h (in vitro) was > 256 µg/mL and the “Average FIC index” value (K. pneumoniae ATCC 13833) was 0.30.
